In patent US8110573B2, “Pyrazole compounds that modulate the activity of CDK, GSK and aurora kinases” (Astex Therapeutics Limited, priority 2004, dated 2012):

Tests used:
CDK1/CyclinB = target: T1, CDK1/CyclinB (Homo sapiens, UniProt P06493); assay: Activated CDK1/CyclinB kinase inhibitory activity assay; format: biochemical
T1 construct: purchased Upstate Discovery
Method: (§1) The reaction is allowed to proceed for 2 to 4 hours before being stopped with an excess of ortho-phosphoric acid (5 μl at 2%). γ^33P-ATP which remains unincorporated into the histone H1 is separated from phosphorylated histone H1 on a Millipore MAPH filter plate. The wells of the MAPH plate are wetted with 0.5% orthophosphoric acid, and then the results of the reaction are filtered with a Millipore vacuum filtration unit through the wells. Following filtration, the residue is washed twice with 200 μl of 0.5% orthophosphoric acid. Once the filters have dried, 20 μl of Microscint 20 scintillant is added, and then counted on a Packard Topcount for 30 seconds.
CDK1/CyclinB assay is identical to the CDK2/CyclinA above except that CDK1/CyclinB (Upstate Discovery) is used and the enzyme is diluted to 6.25 nM.

CDK2/CyclinA = CDK2/CyclinA (Homo sapiens, UniProt P24941); assay: Activated CDK2/CyclinA kinase inhibitory activity assay; format: biochemical
Method: as §1

[1] = Gravimetric vapour sorption (GVS); format: physicochemical; settings: 0-90% RH cycle, 25° C.
Method: The sample size was ca. 10-25 mg. […] The sample was loaded and unloaded at room humidity and temperature (ca. 40% RH, 25° C.) and analysed afterwards by XRPD (using a Bruker AXS C2 GADDS system).

[2] = Salt stability at 40° C. 75% RH followed by XRPD; format: physicochemical; settings: 40° C. and 75% RH over the period of 1-2 month
Method: Approximately 15 mg of samples for the stability study were gently ground by marble mortar and transferred to a Petri dish in a thin layer. Samples were then placed in sealed containers containing saturated NaCl solution with an excess of undissolved NaCl. […] Samples were analysed by X-ray powder diffraction (XRPD) in regular intervals. Samples for XRPD data collection were loaded into crystallographic capillary (from Hampton Research, made of Quartz, diameter=0.4 mm). […] 2D Images were collected while spinning φ axis with a detector to crystal distance of 250 mm. Data collection was controlled by CrystalClear software and 2D images were converted to 1D plot (2θ vs. Intensity) by Datasqueeze (intensity averaged over the azimuthal angle 0<χ<360° for 2θ range 3-30° in 0.01° steps).

HCT-116 cell line = assay: Anti-proliferative activity (Alamar Blue assay); format: cell-based, human
Method: The anti-proliferative activities of compounds of the invention can be determined by measuring the ability of the compounds to inhibition of cell growth in a number of cell lines. Inhibition of cell growth is measured using the Alamar Blue assay (Nociari, M. M, Shalev, A., Benias, P., Russo, C. Journal of Immunological Methods 1998, 213, 157-167). The method is based on the ability of viable cells to reduce resazurin to its fluorescent product resorufin. For each proliferation assay cells are plated onto 96 well plates and allowed to recover for 16 hours prior to the addition of inhibitor compounds for a further 72 hours. At the end of the incubation period 10% (v/v) Alamar Blue is added and incubated for a further 6 hours prior to determination of fluorescent product at […]. In the case of the non-proliferating cell assay cells are maintained at confluence for 96 hour prior to the addition of inhibitor compounds for a further 72 hours. The number of viable cells is determined by Alamar Blue assay as before. In addition, any morphological changes are recorded. Cell lines can be obtained from the ECACC (European Collection of cell Cultures).
In particular, compounds of the invention were tested against the HCT-116 cell line (ECACC Reference: 91091005) derived from human colon carcinoma.

T1 sequence (P06493 whole entry): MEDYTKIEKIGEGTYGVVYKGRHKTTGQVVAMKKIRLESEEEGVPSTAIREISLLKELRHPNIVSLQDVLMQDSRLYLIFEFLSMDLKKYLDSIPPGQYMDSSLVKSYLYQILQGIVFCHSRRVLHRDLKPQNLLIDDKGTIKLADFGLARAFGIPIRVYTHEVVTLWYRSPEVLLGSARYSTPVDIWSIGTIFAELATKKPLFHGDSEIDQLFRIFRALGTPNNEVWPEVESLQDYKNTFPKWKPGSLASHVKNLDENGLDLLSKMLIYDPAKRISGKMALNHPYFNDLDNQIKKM
T1 sequence (P14635 whole entry partner): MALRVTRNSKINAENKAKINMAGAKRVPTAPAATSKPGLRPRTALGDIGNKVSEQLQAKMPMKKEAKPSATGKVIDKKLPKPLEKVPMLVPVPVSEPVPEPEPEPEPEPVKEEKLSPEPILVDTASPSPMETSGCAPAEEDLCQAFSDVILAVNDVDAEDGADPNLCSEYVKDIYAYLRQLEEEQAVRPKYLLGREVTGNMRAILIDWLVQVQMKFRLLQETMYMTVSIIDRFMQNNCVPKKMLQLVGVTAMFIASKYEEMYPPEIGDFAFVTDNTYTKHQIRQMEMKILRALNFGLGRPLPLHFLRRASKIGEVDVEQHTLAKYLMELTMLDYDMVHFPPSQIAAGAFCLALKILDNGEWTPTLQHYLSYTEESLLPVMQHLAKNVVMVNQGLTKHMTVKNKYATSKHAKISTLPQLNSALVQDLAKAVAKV

| Compound | IC50 (CDK1/CyclinB) | IC50 (CDK2/CyclinA) | further results |
| --- | --- | --- | --- |
| O=C(Nc1cccc(F)c1)Nc1c[nH]nc1-c1nc2cc(CN3CCOCC3)ccc2[nH]1 [Example 50] | < 10 µM | – | – |
| COc1cc2nc(-c3n[nH]cc3NC(=O)C3CN(C(C)C)CCO3)[nH]c2cc1OC (racemic) [Example 16, N-[3-(5,6-dimethoxy-1H-benzimidazol-2-yl)-1H-pyrazol-4-yl]-rac-4 isopropyl-2-morpholine carboxamide] | < 10 µM | – | – |
| Cc1nc2sccn2c1C(=O)Nc1c[nH]nc1-c1nc2cc(CN3CCOCC3)ccc2[nH]1 [Example 2, 6-methyl-imadazol[2,1-b]thiazole-5-carboxylic acid[3-(5-morpholin-4-ylmethyl-1H-benzoimidazol-2-yl)-1H-pyrazol-4-yl]-amide] | < 50 µM | – | – |
| O=C(Nc1c[nH]nc1-c1nc2cc(CN3CCOCC3)ccc2[nH]1)[C@@H]1CCCO1 [Example 13] | < 1 µM | – | – |
| O=C(NCc1ccco1)Nc1c[nH]nc1-c1nc2cc(CN3CCOCC3)ccc2[nH]1 [Example 52] | < 10 µM | – | – |
| O=C(CC1CC1)Nc1c[nH]nc1-c1nc2cc(CN3CCOCC3)ccc2[nH]1 [Example 10] | < 1 µM | < 1 µM | – |
| O=C(Nc1c[nH]nc1-c1nc2cc(CN3CCOCC3)ccc2[nH]1)Nc1c(F)cc(F)cc1F [Example 54] | < 1 µM | < 1 µM | – |
| O=C(Nc1c[nH]nc1-c1nc2cc(CN3CCOCC3)ccc2[nH]1)NN1CCOCC1 [Example 32] | < 10 µM | < 1 µM | – |
| CN(C(=O)Nc1c[nH]nc1-c1nc2cc(CN3CCOCC3)ccc2[nH]1)c1ccc(F)cc1F [Example 42] | < 1 µM | – | – |
| O=C(Nc1c[nH]nc1-c1nc2cc(CN3CCOCC3)ccc2[nH]1)N1Cc2ccccc2C1 [Example 28] | < 10 µM | – | – |
| O=C(Nc1c[nH]nc1-c1nc2cc(CN3CCOCC3)ccc2[nH]1)NC1CCCCC1 [Example 51] | < 10 µM | < 10 µM | – |
| COc1ccc(C#N)cc1C(=O)Nc1c[nH]nc1-c1nc2cc(CN3CCOCC3)ccc2[nH]1 [Example 1, 5-cyano-2-methoxy-N-[3-(5-morpholin-4-ylmethyl-1H-benzoimidazol-2-yl)-1H-pyrazol-4-yl]-benzamide] | < 1 µM | < 1 µM | – |
| O=C(Nc1ccc(F)cc1)Nc1c[nH]nc1-c1nc2cc(CN3CCOCC3)ccc2[nH]1 [Example 44, 1-(4-fluorophenyl)-N-[3-(5-morpholin-4-ylmethyl-1H-benzimidazol-2-yl)-1H-pyrazol-4-yl]-urea] | – | < 10 µM | – |
| O=C(Nc1c[nH]nc1-c1nc2cc(CN3CCOCC3)ccc2[nH]1)C1CCOC1 (stereo not drawn) [Example 9] | < 10 µM | – | – |
| O=C(Nc1cc(F)ccc1F)Nc1c[nH]nc1-c1nc2cc(CN3CCOCC3)ccc2[nH]1 [Example 47] | < 1 µM | < 1 µM | – |
| C[C@H](O)C(=O)O.O=C(Nc1c[nH]nc1-c1nc2cc(CN3CCOCC3)ccc2[nH]1)NC1CC1 [L-lactate salt, 1-cyclopropyl-3-[3-(5-morpholin-4-ylmethyl-1H-benzoimidazol-2-yl)-1H-pyrazol-4-yl]-urea, L-lactate salt] | – | – | hygroscopic behaviour (GVS isotherm) [1]: does not display hygroscopic behaviour and does not form a hydrate; change of XRPD pattern on storage [2]: do not change |
| Cn1cccc(NC(=O)Nc2c[nH]nc2-c2nc3cc(CN4CCOCC4)ccc3[nH]2)c1=O [Example 39] | < 10 µM | – | – |
| COc1cc2nc(-c3n[nH]cc3NC(=O)C3CCCN(C)C3)[nH]c2cc1OC (racemic) [Example 17, N-[3-(5,6-dimethoxy-H-benzimidazol-2-yl)-1H-pyrazol-4-yl]-rac-1-methyl-piperidine 3-carboxamide] | < 10 µM | – | – |
| O=C(Nc1c[nH]nc1-c1nc2cc(CN3CCOCC3)ccc2[nH]1)NC1CC1 [Example 24, 1-cyclopropyl-3-[3-(5-morpholin-4-ylmethyl-1H-benzoimidazol-2-yl)-1H-pyrazol-4-yl]-urea] | < 10 µM | – | minimum concentration at which polyploidy or multinucleation is observed (HCT-116 cell line; HCT-116 cell line): less than 100 nM; IC50 (HCT-116 cell line; Homo sapiens, HCT-116, 72 hours compound, Alamar Blue, read-out: IC50, inhibition of cell growth, HCT-116 cell line): < 1 µM; change of XRPD pattern on storage [2]: do not change |
| CC(C)(C)NC(=O)Nc1c[nH]nc1-c1nc2cc(CN3CCOCC3)ccc2[nH]1 [Example 45] | < 10 µM | < 10 µM | – |
| O=C(NCc1c(F)cccc1F)Nc1c[nH]nc1-c1nc2cc(CN3CCOCC3)ccc2[nH]1 [Example 23] | < 50 µM | – | – |
| CC(C)(CO)C(=O)Nc1c[nH]nc1-c1nc2cc(CN3CCOCC3)ccc2[nH]1 [Example 8] | < 10 µM | – | – |

| Compound | IC50 (CDK1/CyclinB) | IC50 (CDK2/CyclinA) | further results |
| --- | --- | --- | --- |
| COc1ccc(Cl)cc1C(=O)Nc1c[nH]nc1-c1nc2cc(CN3CCN(C)CC3)ccc2[nH]1 [Example 22, 5-chloro-2-methoxy-N-{3-[5-(4-methyl-piperazin-1-ylmethyl)-1H-benzoimidazol-2-yl]-1H-pyrazol-4-yl}-benzamide] | < 1 µM | < 1 µM | – |
| COc1cc2nc(-c3n[nH]cc3NC(=O)c3cc(Cl)cc(N4CCN(C)CC4)c3)[nH]c2cc1OC [Example 18, 3-chloro-N-(5,6-dimethoxy-1H-benzoimidazol-2-yl)-1H-pyrazol-4-yl-5-(4-methyl-piperazin-1-yl)-benzamide] | – | < 1 µM | – |
| N#CCC(=O)Nc1c[nH]nc1-c1nc2cc(CN3CCOCC3)ccc2[nH]1 [Example 3, 2-cyano-N-[3-(5-morpholin-4-ylmethyl-1H-benzoimidaxol-2-yl)-1H-pyrazol-4-yl]-acetamide] | < 10 µM | – | – |
| O=C(Nc1c[nH]nc1-c1nc2cc(CN3CCOCC3)ccc2[nH]1)NN1CCCC1 [Example 30] | – | < 1 µM | – |
| CS(=O)(=O)CCNC(=O)Nc1c[nH]nc1-c1nc2cc(CN3CCOCC3)ccc2[nH]1 [Example 33] | < 50 µM | – | – |
| CN(C)NC(=O)Nc1c[nH]nc1-c1nc2cc(CN3CCOCC3)ccc2[nH]1 [Example 31] | < 10 µM | < 1 µM | – |
| O=C(Nc1c[nH]nc1-c1nc2cc(CN3CCOCC3)ccc2[nH]1)C1CCCO1 (stereo not drawn) [Example 11] | < 1 µM | < 1 µM | – |
| CN(C(=O)Nc1c[nH]nc1-c1nc2cc(CN3CCOCC3)ccc2[nH]1)c1cccc(F)c1 [Example 41] | < 10 µM | – | – |
| COc1ccc(Cl)cc1NC(=O)Nc1c[nH]nc1-c1nc2cc(CN3CCOCC3)ccc2[nH]1 [Example 56] | < 10 µM | – | – |
| O.O.O=C(Nc1c[nH]nc1-c1nc2cc(CN3CCOCC3)ccc2[nH]1)NC1CC1 [dihydrate free base (FB2), 1-cyclopropyl-3-[3-(5-morpholin-4-ylmethyl-1H-benzoimidazol-2-yl)-1H-pyrazol-4-yl]-urea free base dihydrate] | – | – | change of XRPD pattern on storage [2]: do not change |
| CN(C(=O)Nc1c[nH]nc1-c1nc2cc(CN3CCOCC3)ccc2[nH]1)c1ccc(F)cc1 [Example 37, 1-(4-fluorophenyl)-1-methyl-3-[3-(5-morpholin-4-ylmethyl-1H-benzimadazol-2-yl)-1H-pyrazol-4-yl]-urea] | < 50 µM | – | – |
| O=C(NCC1CCOCC1)Nc1c[nH]nc1-c1nc2cc(CN3CCOCC3)ccc2[nH]1 [Example 26] | < 50 µM | – | – |
| CN(C(=O)Nc1c[nH]nc1-c1nc2cc(CN3CCOCC3)ccc2[nH]1)c1ccccc1F [Example 43] | < 50 µM | – | – |
| O=C(Nc1c[nH]nc1-c1nc2cc(CN3CCOCC3)ccc2[nH]1)NC1CCOCC1 [Example 27] | < 50 µM | – | – |
| O=C(Nc1c[nH]nc1-c1nc2cc(CN3CCOCC3)ccc2[nH]1)N1CCc2ccccc21 [Example 29] | < 10 µM | – | – |
| O=C(Nc1ccccc1F)Nc1c[nH]nc1-c1nc2cc(CN3CCOCC3)ccc2[nH]1 [Example 49] | < 10 µM | – | – |
| O=C(NCC1CC1)Nc1c[nH]nc1-c1nc2cc(CN3CCOCC3)ccc2[nH]1 [Example 34] | < 10 µM | – | – |
| COc1cc2nc(-c3n[nH]cc3NC(=O)c3ccoc3CN(C)C)[nH]c2cc1OC [Example 20] | < 10 µM | < 1 µM | – |
| O=C(Nc1ccc(F)cc1F)Nc1c[nH]nc1-c1nc2cc(CN3CCOCC3)ccc2[nH]1 [Example 46] | < 10 µM | < 1 µM | – |
| O=C(Nc1cc(F)cc(F)c1)Nc1c[nH]nc1-c1nc2cc(CN3CCOCC3)ccc2[nH]1 [Example 53] | < 10 µM | < 10 µM | – |
| N#CC(C(=O)Nc1c[nH]nc1-c1nc2cc(CN3CCOCC3)ccc2[nH]1)C1CC1 (stereo not drawn) [Example 4, 2-Cyano-2-cyclopropyl-N-[3-(5-morpholin-4-ylmethyl-1H-benzoimidazol-2-yl)-1H-pyrazol-4-yl]-acetamide] | < 1 µM | – | – |
